Consider three compounds from patent US20100190751A1, “NOVEL COMBINATION OF NERAMEXANE FOR TREATMENT OF NERORDEGENERATIE DISORDERS” (MERZ PHARMA GmbH & CO. KGaA, priority 2007, published 2010).

The test system of assay [1] is SOD1(G93A) transgenic mouse model of ALS. Conditions: both gender; for Age of Disease Onset, Mean age / Age of First Paresis, Mean age / Disease Endstage - Survival, Mean age: treatment from day 45; for Age of Disease Onset, Mean age: riluzole 35 mg/kg day and neramexane (dosage adapted to gender, 50 male/150 female) in drinking water, memantine 20 mg/kg day s.c.; for Age of First Paresis, Mean age / Disease Endstage - Survival, Mean age: same doses as Table 1; for Age of Disease Onset, Difference compared to control: versus vehicle control mean 106.6; for Age of First Paresis, Difference compared to control: versus vehicle control mean 119.7; for Disease Endstage - Survival, Difference compared to control: versus vehicle control mean […].

Assay [2] concerns SOD1(G93A) ALS-mouse model. Conditions: Wang et al. 2005; cited from earlier work.
Assay [3] concerns SOD1(G93A) transgenic mouse model of ALS. Put plainly: Motor performance in the running wheel, SOD1(G93A) ALS mouse model. Conditions: for Disease Progression (Rev's per 12 hours/day) / Half Maximum Performance / Presymptomatic Performance (Rev's per 12 hours): both gender; for Half Maximum Performance, Difference: versus vehicle control 106.1; for Presymptomatic Performance, Difference (rp 12 hours): versus vehicle control 19,518; for Disease Progression, Difference: versus vehicle control −17.862. Type of assay: in vivo. The protocol:
Drug treatment starts at day 45.
Memantine is supplied by MERZ pharmaceuticals. […] Drugs are dissolved in drinking water. […] Memantine is administered twice a day subcutaneously.
Consumption of drinking water is checked randomly.
4. Motor Performance in the running wheel

With `CC12CC3CC(C)(C1)CC(N)(C3)C2` [Memantine], in assay [1], the “Age of Disease Onset, Median age” value is 107.5 days; the “Age of First Paresis, Median age” value was determined as 123.0 days; the “Disease Endstage - Survival, Median age” value is reported as 134.0 days; the “Age of Disease Onset, Mean age” value is reported as 108.5 days. Moreover, in assay [1], the “Age of First Paresis, Mean age” value was 123.7 days; the “Disease Endstage - Survival, Mean age” value was 134.4 days; the “Age of Disease Onset, Difference compared to control” value (from here on “Age of Disease Onset, Difference”) is 1.9 days; the “Age of First Paresis, Difference compared to control” value (“Age of First Paresis, Difference” for short) was 4.0 days. Besides, the “Disease Endstage - Survival, Difference compared to control” value in assay [1] was 5.1 days. Also, in assay [2], the “Effects regarding disease progression and survival” value is given as “positive effects”. In assay [3], the “Disease Progression (Rev's per 12 hours/day)” value was −22.528 Rev's per 12 hours/day; the “Half Maximum Performance” value worked out at 110.5 days; the “Presymptomatic Performance (Rev's per 12 hours)” value is 10,784 Rev's per 12 hours; the “Half Maximum Performance, Difference” value turned out to be 4.4 days. Also, in assay [3], the “Presymptomatic Performance, Difference (rp 12 hours)” value is −8,734 rp 12 hours and the “Disease Progression, Difference” value is reported as −4.666.

On to `CC1(C)CC(C)(C)CC(C)(N)C1` [Neramexane, 1-amino-1,3,3,5,5-pentamethylcyclohexane], for which, in assay [1], the “Age of Disease Onset, Median age” value is on record as 107.0 days; the “Age of First Paresis, Median age” value is recorded as 124.0 days; the “Disease Endstage - Survival, Median age” value is on record as 135.0 days; the “Age of Disease Onset, Mean age” value was 107.8 days. In addition, in assay [1], the “Age of First Paresis, Mean age” value is 123.7 days; the “Disease Endstage - Survival, Mean age” value worked out at 135.1 days; the “Age of Disease Onset, Difference” value is 1.2 days; the “Age of First Paresis, Difference” value is 4.0 days. Also, the “Disease Endstage - Survival, Difference compared to control” value in assay [1] is 5.8 days. For the same compound, in assay [3], the “Disease Progression (Rev's per 12 hours/day)” value is −16.108 Rev's per 12 hours/day; the “Half Maximum Performance” value was 109.2 days; the “Presymptomatic Performance (Rev's per 12 hours)” value is given as 21,096 Rev's per 12 hours; the “Half Maximum Performance, Difference” value is on record as 3.1 days. In assay [3], the “Presymptomatic Performance, Difference (rp 12 hours)” value is given as 1,578 rp 12 hours and the “Disease Progression, Difference” value was determined as 1.754.

Consider `Nc1nc2ccc(OC(F)(F)F)cc2s1` [Riluzole, 2-amino-6-trifluromethoxybenzothiazole], for which, in assay [1], the “Age of Disease Onset, Median age” value stood at 105.0 days; the “Age of First Paresis, Median age” value is recorded as 119.0 days; the “Age of Disease Onset, Mean age” value was determined as 106.3 days; the “Age of First Paresis, Mean age” value is 120.0 days. Besides, in assay [1], the “Age of Disease Onset, Difference” value is -0.3 days and the “Age of First Paresis, Difference” value came to 0.3 days. Besides, in assay [3], the “Disease Progression (Rev's per 12 hours/day)” value is listed as −14.015 Rev's per 12 hours/day; the “Presymptomatic Performance (Rev's per 12 hours)” value is given as 20,565 Rev's per 12 hours; the “Presymptomatic Performance, Difference (rp 12 hours)” value is reported as 1,047 rp 12 hours; the “Disease Progression, Difference” value came out at 3.847.
